Measured values published in patent US8785638B2, “Thieno [2, 3-B] pyridine derivatives as viral replication inhibitors” (Katholieke Universiteit Leuven, priority 2009, dated 2014).
Read-outs that look alike come from different tables or passages of the source.

How the values were obtained:
[1] = biological target: LEDGF/p75-HIV-1 integrase interaction (Human immunodeficiency virus type 1 group M subtype B (isolate HXB2) (HIV-1), UniProt P04585); assay: AlphaScreen assay of LEDGF-integrase interaction inhibition; assay type: binding
Protocol: Alphascreen Assay to Measure the LEDGF-Integrase Interaction Inhibitory Activity of Compounds of the Invention
The AlphaScreen assay was performed according to the manufacturer's protocol (Perkin Elmer, Benelux). Reactions were performed in 25 μl final volume in 384-well Optiwell™ microtiter plates (Perkin Elmer). The reaction buffer contained 25 mM Tris-HCl (pH 7.4), 150 mM NaCl, 1 mM MgCl2, 0.01% (v/v) Tween-20 and 0.1% (w/v) bovine serum albumin. His6-tagged integrase (300 nM final concentration) was incubated with the compounds for 30 min at 4° C. The compounds were added at varying concentrations spanning a wide range from 0.1 up to 100 μM. Afterwards 100 nM flag-LEDGF/p75 was added and incubation was prolonged for an additional hour at 4° C. Subsequently 5 μl of Ni-chelate-coated acceptor beads and 5 μl anti-flag donor beads were added to a final concentration of 20 μg/ml of both beads. Proteins and beads were incubated for 1 h at 30° C. in order to allow association to occur. Exposure of the reaction to direct light was omitted as much as possible and the emission of light from the acceptor beads was measured in the EnVision plate reader (Perkin Elmer, Benelux) and analyzed using the EnVision manager software. IN/DNA binding was analyzed in a similar setting using His6-tagged integrase (1 μM final concentration) and an oligodeoxynucleotide mimicking the IN ELISA oligonucleotide substrate (30 nM final concentration). Counterscreens with JPO2 or PogZ, respectively, were essentially performed as described previously.
His6-tagged HIV-1 integrase, 3xflag-tagged LEDGF/p75, MBP-JPO2 and MBP-PogZ were purified for AlphaScreen applications as described previously 23,25,56.

[2] = Cytotoxicity in mock-infected MT-4 cells (MTT); assay type: cell-based; details: human, 50% cytotoxic concentration
Protocol: (§1) A rapid and automated assay procedure was used for the in vitro evaluation of anti-HIV agents. An HTLV-1 transformed T4-cell line MT-4, which was previously shown to be highly susceptible to and permissive for HIV infection, served as the target cell line. Inhibition of the HIV-induced cytopathogenic effect was used as the end point. The viabitlity of both HIV- and mock-infected cells was assessed spectrophotometrically via in situ reduction of 3-(4,5-dimethylthiazol-2-yl)-2,5-diphenyltetrazolium bromide (MTT). The 50% cytotoxic concentration (CC50 in μM or μg/ml) was defined as the concentration of compound that reduced the absorbance of the mock-infected control sample by 50%. The percent protection achieved by the compound in HIV-infected cells was calculated by the following formula:
(§2) [formula] whereby (ODT)HIV is the optical density measured with a given concentration of the test compound in HIV-infected cells; (ODC)HIV is the optical density measured for the control untreated HIV-infected cells; (ODC)MOCK is the optical density measured for the control untreated mock-infected cells; all optical density values were determined at 540 nm. The dose achieving 50% protection according to the above formula was defined as the 50% inhibitory concentration (EC50 in μM or μg/ml). The ratio of CC50 to EC50 was defined as the selectivity index (SI). […] Examples of inhibition of cell proliferation by particular compounds of the invention can be found by looking at the respective CC50 values in the MT-4 cell line. Cells:
(§3) MT-4 cells (Miyoshi et al., 1982) were grown and maintained in RPMI 1640 medium supplemented with 10% heat-inactivated fetal calf serum, 2 mM I-glutamine, 0.1% sodium bicarbonate, and 20 μg of gentamicin per ml. Alternatively, the MT-4 cells may also be grown in RPMI 1640 medium supplemented with 10% FCS and 20 μg/ml of gentamicin (RPMI-complete).

[3] = test system: HIV-1 (IIIB), HIV-1 (NL4.3); assay: microbe, parasite or virus in culture; assay type: cell-based; details: for EC50: Human immunodeficiency virus 1, IIIB, MT4, MT-4 cells, 50% protection against HIV-induced cytopathogenic effect, MTT; for SI: selectivity index, ratio of CC50 to EC50
Protocol: as §1, §2, §3
The HIV-1 (IIIB) strain (Popovic et al., 1984) as well as the HIV-1 (NL4.3) strain (Adachi et al., J. Virol. 59, 284-291 (1986)) were used.

[4] = His6-tagged integrase 300 nM, flag-LEDGF/p75 100 nM, read-out: Alphascreen IC50

SMILES | IC50 [1, 4] [µM] | CC50 [2] [µM] | EC50 [3] [µM] | SI [3] | IC50 [1] [µM]
Cc1nc2sc3c(c2c(-c2cnn(C)c2)c1C(OC(C)(C)C)C(=O)O)CCCC3 (centres unmarked) [Cpd 177, 2-[2-methyl-4-(1-methyl-1H-pyrazol-4-yl)-5,6,7,8-tetrahydro[1]benzothieno[2,3-b]pyridin-3-yl]-2-tert-butoxyacetic acid] | 11.7 | > 212 | 1.17 | >181 | –
CCCC(C(=O)O)c1c(C)nc2sc3c(c2c1-c1ccc(C)cc1)CCN(Cc1ccccc1)C3 (centres unmarked) [Cpd 163, 2-[7-Benzyl-2-methyl-4-(p-tolyl)-5,6,7,8-tetrahydro-9-thia-1,7-diaza-fluoren-3-yl]pentanoic acid] | 4.5 | 23 | > 23 | – | –
Cc1nc2sc3c(c2c(-c2ccc4ncsc4c2)c1C(OC(C)(C)C)C(=O)O)CCCC3 (centres unmarked) [Cpd 186, 2-[2-methyl-4-(benzo[d]thiazol-6-yl)-5,6,7,8-tetrahydro[1]benzothieno[2,3-b]pyridin-3-yl]-2-tert-butoxyacetic acid] | 0.43 | 110 | 0.038 | 2900 | –
CCCC(C(=O)O)c1c(C)nc2sc3c(c2c1-c1ccc(Cl)cc1)CCC3 (centres unmarked) [Cpd 112, 2-[2-Methyl-4-(4-chlorophenyl)-6,7-dihydro-5H-cyclopenta[4,5]thieno[2,3-b]pyridin-3-yl]pentanoic acid] | 1.11 | 67.7 | 0.803 | 84 | –
CCCC(C(=O)O)c1c(C)nc2sc3c(c2c1-c1ccc(C)cc1OC)CCCC3 (centres unmarked) [Cpd 160, 2-[2-methyl-4-(2-methoxy-4-methylphenyl)-5,6,7,8-tetrahydro[1]benzothieno[2,3-b]pyridin-3-yl]pentanoic acid] | 17.7 | 74 | 14.4 | 5 | –
CCCC(C(=O)O)c1c(C)nc2sc3c(c2c1-c1cccc(Cl)c1)CCCC3 (centres unmarked) [Cpd 138, 2-[2-Methyl-4-(3-chlorophenyl)-5,6,7,8-tetrahydro[1]benzothieno[2,3-b]pyridin-3-yl]pentanoic acid] | 39.9 | 100 | 43.3 | 2 | –
CCCC(C(=O)O)c1c(C)nc2sc3c(c2c1-c1ccc(C)cc1)CCC3C (centres unmarked) [Cpd 128, 2-[2-methyl-7-methyl-4-p-tolyl-6,7-dihydro-5H-cyclopenta[4,5]thieno[2,3-b]pyridin-3-yl]pentanoic acid] | 11.3 | 121 | 4.07 | 30 | –
CCCC(C(=O)O)c1c(C)nc2sc3c(c2c1-c1ccc(C)cc1O)CCCC3.N (centres unmarked) [Cpd 161, 2-[2-Methyl-4-(2-hydroxy-4-methylphenyl)-5,6,7,8-tetrahydro[1]benzothieno[2,3-b]pyridin-3-yl]pentanoate ammonium salt] | – | 157 | 0.147 | 1061 | 0.0554
CCCC(C(=O)O)c1c(C)nc2sc3c(c2c1-c1cc2ccccc2o1)CCCC3 (centres unmarked) [Cpd 154, 2-[2-Methyl-4-(benzofuran-2-yl)-5,6,7,8-tetrahydro[1]benzothieno[2,3-b]pyridin-3-yl]pentanoic acid] | 8.12 | 90.5 | 6.28 | 14 | –
CCCC(C(=O)O)c1c(C)nc2sc3c(c2c1-c1ccc(OC(F)(F)F)cc1)CCCC3 (centres unmarked) [Cpd 151, 2-[2-Methyl-4-(4-trifluoromethoxyphenyl)-5,6,7,8-tetrahydro[1]benzothieno[2,3-b]pyridin-3-yl]pentanoic acid] | 21.5 | 48 | 8 | 6 | –
Cc1nc2sc3c(c2c(-c2cccnc2)c1C(OC(C)(C)C)C(=O)O)CCCC3 (centres unmarked) [Cpd 173, 2-[2-Methyl-4-(pyridin-3-yl)-5,6,7,8-tetrahydro[1]benzothieno[2,3-b]pyridin-3-yl]-2-tert-butoxyacetic acid] | 5.9 | 225 | 4.51 | 50 | –
CCCC(C(=O)O)c1c(C)nc2sc3ccccc3c2c1-c1ccc(C)cc1 (centres unmarked) [Cpd 120, 2-[2-Methyl-4-p-tolylbenzo[4,5]thieno[2,3-b]pyridin-3-yl]pentanoic acid] | 2.72 | 101 | 1.51 | 67 | –
CCCC(C(=O)O)c1c(C)nc2sc3c(c2c1-c1ccc(OC)cc1)CCC3 (centres unmarked) [Cpd 131, 2-[2-Methyl-4-(p-anisyl)-6,7-dihydro-5H-cyclopenta[4,5]thieno[2,3-b]pyridin-3-yl]pentanoic acid] | – | 127 | 2.43 | 52 | 4.54
COCCC(C(=O)O)c1c(C)nc2sc3c(c2c1-c1ccc(C)cc1)CCC3 (centres unmarked) [Cpd 122, 2-[2-methyl-4-(p-tolyl)-6,7-dihydro-5H-cyclopenta[4,5]thieno[2,3-b]pyridin-3-yl]-4-O-methoxy-butanoic acid] | 3.2 | 79.8 | 5.3 | 15 | –
CCC(C)C(C(=O)O)c1c(C)nc2sc3c(c2c1-c1ccc(C)cc1)CCCC3 (centres unmarked) [Cpd 157, 2-[2-Methyl-4-(p-tolyl)-5,6,7,8-tetrahydro[1]benzothieno[2,3-b]pyridin-3-yl]-3-methylpentanoic acid] | 26.4 | 35 | > 35 | – | –
Cc1ccc(-c2c(CC(=O)O)c(C)nc3sc(C)cc23)cc1 [Cpd 106, (2,6-Dimethyl-4-p-tolylthieno[2,3-b]pyridin-5-yl)acetic acid] | 53.9 | > 125 | 96.4 | >1 | –
Cc1ccc(-c2c(C(CCc3ccccc3)C(=O)O)c(C)nc3sc4c(c23)CCCC4)cc1 (centres unmarked) [Cpd 155, 2-[2-Methyl-4-(p-tolyl)-5,6,7,8-tetrahydro[1]benzothieno[2,3-b]pyridin-3-yl]-4-phenylbutanoic acid] | 81.9 | 22 | > 22 | – | –
CCCC(C(=O)O)c1c(C)nc2sc3c(c2c1-c1ccc(Cl)c(Cl)c1)CCCC3 (centres unmarked) [Cpd 139, 2-[2-Methyl-4-(3,4-dichlorophenyl)-5,6,7,8-tetrahydro[1]benzothieno[2,3-b]pyridin-3-yl]pentanoic acid] | 9.24 | 55.1 | 5.32 | 10 | –
CCCC(C(=O)O)c1c(C)nc2sc3c(c2c1-c1ccccc1Cl)CCCC3 (centres unmarked) [Cpd 137, 2-[2-Methyl-4-(2-chlorophenyl)-5,6,7,8-tetrahydro[1]benzothieno[2,3-b]pyridin-3-yl]pentanoic acid] | 51.9 | 111 | > 111 | – | –
CCCC(C(=O)NC#N)c1c(C)nc2sc3c(c2c1-c1ccc(C)cc1)CCCC3 (centres unmarked) [Cpd 166, N-cyano-2-[2-Methyl-4-p-tolyl-5,6,7,8-tetrahydro[1]benzothieno[2,3-b]pyridin-3-yl]pentanamide] | 3 | 131 | > 131 | – | –
CCCC(C(=O)O)c1c(C)nc2sc3c(c2c1-c1ccccc1F)CCCC3 (centres unmarked) [Cpd 153, 2-[2-Methyl-4-(2-fluorophenyl)-5,6,7,8-tetrahydro[1]benzothieno[2,3-b]pyridin-3-yl]pentanoic acid] | 43.6 | > 125 | 17 | >8 | –
CCCC(C(=O)O)c1c(C)nc2sc(C)c(C)c2c1-c1ccc(C)cc1 (centres unmarked) [Cpd 108, 2-(2,3,6-Trimethyl-4-p-tolylthieno[2,3-b]pyridin-5-yl)pentanoic acid] | 4.48 | 57.9 | 2.19 | 27 | –
